The subject of assay [1] is RNA 9 (canonical theophylline aptamer, Cy5) (RNA, aptamer) GGCGAUACCAGCCGAAAGGCCCUUGGCAGCGUC
The assay can be described thus: MST binding check. Conditions: Na+ 150 mM (NaCl), 10 nM RNA.

In assay [2] the test system is RNA 10 (8-oxoG at G25) (RNA, aptamer, 7,8-dihydro-8-oxoguanosine at 25) GGCGAUACCAGCCGAAAGGCCCUUGGCAGCGUC
The assay can be described thus: microscale thermophoresis (MST). As to conditions: Na+ 150 mM (NaCl); TBS pH 7.5, up to 5% DMSO; up to 1 mM; incomplete curve, solubility; abstract gives ≈160 μM.

Assay [3] concerns RNA 11 (8-oxoG at G26) (RNA, aptamer, 7,8-dihydro-8-oxoguanosine at 26) GGCGAUACCAGCCGAAAGGCCCUUGGCAGCGUC
The assay is described as follows: MST binding check. Conditions: Na+ 150 mM (NaCl), 10 nM RNA.

The test system of assay [4] is RNA 12 (8-oxoG at G11) (RNA, aptamer, 7,8-dihydro-8-oxoguanosine at 11) GGCGAUACCAGCCGAAAGGCCCUUGGCAGCGUC
The assay is described as follows: MST binding check. Conditions: Na+ 150 mM (NaCl), 10 nM RNA.

For assay [5], the system named is RNA 10 (8-oxoG at G25) (RNA, aptamer, 7,8-dihydro-8-oxoguanosine at 25) GGCGAUACCAGCCGAAAGGCCCUUGGCAGCGUC
The assay can be described thus: MST binding check. Conditions: Na+ 150 mM (NaCl); TBS: 50 mM Tris-HCl pH 7.5; 10 nM RNA; up to 11.25 mM.

Assay [6] relates to RNA 1 (canonical theophylline aptamer) (RNA, aptamer) GGCGAUACCAGCCGAAAGGCCCUUGGCAGCGUC
The assay can be described thus: ITC. Conditions: conditions as previously reported (cited).

Assay [7] has as its system RNA 9 (canonical theophylline aptamer, Cy5) (RNA, aptamer) GGCGAUACCAGCCGAAAGGCCCUUGGCAGCGUC
The assay can be described thus: microscale thermophoresis (MST). As to conditions: Na+ 150 mM (NaCl); TBS: 50 mM Tris-HCl pH 7.5; 10 nM RNA; incubated in ice.

[8] abbreviates: TBS pH 7.5, up to 5% DMSO, up to 1 mM.
Setting [9] is: TBS: 50 mM Tris-HCl pH 7.5, up to 11.25 mM.

Each structure is given as a SMILES string.

Turning to `Cn1cnc2c1c(=O)[nH]c(=O)n2C`, the binding result in assay [1] (setting [8]), in assay [3] (setting [8]) and in assay [4] (setting [8]) was “no” throughout. The equilibrium dissociation constant (Kd) in assay [2] was > 160 µM.

As to `Cn1c(=O)c2c(ncn2C)n(C)c1=O`, the binding entry in assay [1] (setting [9]), in assay [5], in assay [6] (printed Kd = NA), in assay [3] (setting [9]) and in assay [4] (setting [9]) was “no” each time.

On to `Cn1c(=O)c2[nH]cnc2n(C)c1=O`, for which the dissociation constant (Kd) in assay [6] (mean of two runs, 0.72 and 1.98 μM) amounted to 1.35 µM; in assay [7], 29 ± 35 µM. Besides, the binding entry in assay [4] (setting [9]) is reported as “no”.

The values above are taken from publication PMC7297664 (2020).
